Reference: US20090318396A1, “CORTICOSTEROID LINKED BETA-AGONIST COMPOUNDS FOR USE IN THERAPY” (priority 2008, published 2009)

Key:
[1] = test system: carbachol-induced bronchoconstriction; experiment: Carbachol-induced bronchoconstriction in sheep; type: in vivo; settings: Example 52 4.7 mg, Salmeterol 2.5 mg, mean ± s.e.m, n=4
Protocol: Bronchoconstriction was evaluated as a function of increased pulmonary resistance following carbachol challenge. […] Test article was administered either by a pre-dosing or duration of action protocol. In the pre-dosing regimen, animals were dosed once daily for four days, with the last dose administered 1 hr before carbachol challenge. In the duration of action regimen, animals were dosed once daily for four days, with the last dose administered 24 hours before carbachol challenge. Test article and carbachol were administered by nebulized aerosol to intubated sheep.

[2] = test system: tobacco-smoke-induced airway inflammation; experiment: Tobacco smoke model of airway inflammation in mice; type: in vivo, female C3H mice; settings: for IL-1α / MIP-1α / Neutrophils: mean ± s.e.m.
Protocol: Vehicle and test articles are delivered by intratracheal instillation in 10% ethanol water to animals anesthetized with 3-5% isoflurane (n=8 animals per test article group). All compounds will be delivered on a daily (5 days per week) schedule for 3 weeks during the smoke exposures. Mice were exposed to cigarette smoke for 6 hours per day, 5 days per week for 3 weeks, in H1000 or H2000 chambers. Type 2R4F research cigarettes (Kentucky Tobacco Research and Development Center) were used in the study. Total particulate material (TPM) exposure was kept at […] for the first week to allow animals to reduce adverse effects during adaptation to smoke exposure. TPM exposure was maintained between 100 and 250 mg TPM/m^3 during the remainder of the study. After 3 weeks, animals were euthanized and bronchoalveolar lavage fluid was obtained for cell differentials and cytokine analysis by Luminex multiplex immunoassay.

[3] = test system: LPS-induced airway inflammation; experiment: LPS-induced airway inflammation in rats; type: in vivo, Male Fischer 344 rats; settings: for TNFα / Neutrophils: rat BAL, mean ± s.e.m.
Protocol: Example 52 was evaluated in an LPS-induced airway inflammation model in rats. Male Fischer 344 rats (n 8/group) were treated with either vehicle or test article by intratracheal instillation in […] volume 1 hour prior to LPS challenge. Animals were then exposed to LPS by nose-only inhalation exposure for 10 minutes at 5 mg/m^3 resulting in an estimated 5 μg lung deposition. Animals were sacrificed 4 hours after LPS exposure. Lungs were lavaged for bronchoalveolar lavage cell differentials and cytokine analysis by Luminex multiplex immunoassay.

[4] = test system: ovalbumin-induced lung inflammation; experiment: Mouse ovalbumin model of lung inflammation; type: in vivo, Mice (Balb/c); settings: mouse OVA
Protocol: Mice (Balb/c) were immunized by intraperitoneal injection of ovalbumin (10 μg OVA suspended in 2 mg aluminum hydroxide) on day 0 and 7. One group was sensitized and treated with vehicle (NSV). One group was immunized with sterile water only and treated with vehicle, e.g. to serve as a nonsensitized (negative) control (Vehicle). […] On days 14 and 15, the animals were exposed to OVA by inhalation (3 h; 5 mg/m^3). Forty eight hours following the last OVA challenge (day 17) mice were sacrificed. Bronchoalveolar lavage (BAL) was taken from each animal to collect cells and fluid. Cell numbers and differentials were calculated from BAL.

[5] = Drug levels in plasma, BALF and lung after IT administration in the rat; settings: IT
Protocol: Compounds of Examples 52 and 83 were formulated for intratracheal (IT) dosing in 10% EtOH, 90% Sterile Water, and dosed in male Sprague-Dawley rats at 3 mg/kg (Example 52) and 1 mg/kg (Example 83). Each dosing group consisted of 3 male, naïve purebred Sprague-Dawley rats. At dosing, the animals weighed ˜0.30 kg. The animals were fasted overnight prior to dose administration and up to 2 hr after dosing. The compounds were administered IT using a Penn Century Microsprayer (Model 1A-1B).
Blood samples were collected at 0.5, 2, and 4 hours post-dose. Each blood sample (0.5-0.6 mL per sample) was collected via the orbital sinus (following anesthesia for BAL procedure) into tubes containing EDTA anti-coagulant into containers surrounded by dry ice at 0.5, 2 and 4 hr (mean, n=6). Blood samples were stored at −20±5° C. until shipped for analysis.
The animals were anesthetized with an intramuscular (IM) injection of a ketamine/xylazine/acepromazine (80/10/2 mg/kg) cocktail at a dose volume of 1.1 mL/kg. A cannula (modified Bard® infant feeding tube) was inserted into the trachea. Warmed sterile saline was injected into the lungs. The lungs were gently massaged by palpation of the chest for approximately 45 seconds. The fluid (BALF) was recovered and placed on ice. The procedure was repeated two more times, and all three BALF samples pooled. The fluid was centrifuged under refrigerated conditions at 350 g for 10 minutes. The supernatant and cell pellet were collected and stored at approximately −70° C. until shipped for analysis.
Immediately following each BAL procedure, the lungs from each animal were removed, blotted dry, weighed, and stored frozen at −70° C. until shipped for analysis.
An LC/MS/MS method was used to measure the concentration of compound in plasma.
Add 3×w/v of 1×PBS buffer (90:10-PBS:ACN) to each lung tissue. Homogenize the sample w/Polytron (PT1200) and take 50 uL of supernatant and inject to LC/MSMS.
An aliquot of 50 μL of each plasma sample was treated with 100 mL of acetonitrile (ACN) containing internal standard. After the protein precipitation, an aliquot of 100 μL of the supernatant was transferred to a clean 96-well plate and mixed with 100 μL of water. An aliquot of 30 μL of the above solution was injected to the TSQ Ultra Quantum LC/MS/MS system.
A HyPurity C18 HPLC column (30×2.1 mm, 5μ) from ThermoHypersil (Part #: 22105-032130) was used. Mobile phase A contained 1% acetonitrile in 10 mM ammonium formate aqueous solution with 1% formic acid. Mobile phase B contained 80% acetonitrile in 10 mM ammonium formate with 1% formic acid. An Agilent 1100 series binary pump (P/N G1312A Bin Pump) was used for elution and separation. HTS Pal autosampler from LEAP Technologies, Carrboro, N.C. was used.
TSQ Quantum Ultra triple quadrupole mass spectrometer from Thermo Finnigan, San Jose, Calif. was used in selective reaction monitoring (SRM) operation mode, Tune file:

[6] = test system: ragweed-induced bronchoconstriction; experiment: Ragweed-induced bronchoconstriction in dogs; type: in vivo, beagle dogs; settings: mean ± s.e.m.
Protocol: The compound of Example 52 was assesed for bronchodilator activity in a ragweed-induced bronchoconstriction model in beagle dogs. Dogs were mechanically ventilated during each experiment. Airflow and tidal volume were measured using a differential pressure transducer located in front of the endotracheal tube. An esophageal balloon catheter placed in the esophagus was used to determine transpulmonary pressure. Pulmonary resistance and dynamic lung compliance were calculated from the simultaneous measurement of transpulmonary pressure and respiratory flow. The canine exposure system was designed to expose an anesthetized animal via an intubation tube. Dogs were administered vehicle or test article by inhalation 30 minutes before ragweed antigen exposure (n=4). Dogs were challenged with ragweed antigen (ragweed short, Ambrosia artemisifolia, Greer, Lenoir, N.C.) by inhalation (5 breaths). Immediately following ragweed challenge, changes in pulmonary resistance and compliance were measured for up to 30 minutes.

[7] = 3.0 mg/kg IT, 1x/day day 14 and 15

## CC[N+](CC)(CC(=O)OCC(=O)[C@@]12O[C@H](C3CCCCC3)O[C@@H]1C[C@H]1[C@@H]3CCC4=CC(=O)C=C[C@]4(C)[C@H]3[C@@H](O)C[C@@]12C)Cc1cc(C(O)CNCCCCCCOCCCCc2ccccc2)ccc1OP(=O)(O)O.[Cl-] (stereo partly drawn) [Example 52, [5-[1-hydroxy-2-[6-(4-phenylbutoxy)hexylamino]ethyl]-2-phosphonooxybenzyl]-(diethyl)-[[11β,16α]-[[15,16-((R)-cyclohexylmethylene)bis(oxy)]-11-hydroxypregna-1,4-diene-3,20-dion-21-yl]carbonylmethyl]ammonium chloride]
[1]; Duration of action regimen (last dose 24 hours before carbachol), Ciclesonide 2.2 mg + Salmeterol Xinafoate 2.5 mg
  Lung Resistance (% Increase) at 2% Carbachol: 450 ± 36 % Increase
[1]; Predosing regimen (last dose 1 hr before carbachol)
  Lung Resistance (% Increase) at 2% Carbachol: 335 ± 38 % Increase
[2]; 0.6 mg/kg i.t.
  IL-1α: 2.54 ± 0.59 pg/mL
  MIP-1α: 4.34 ± 1.15 pg/mL
  Neutrophils: 7.7 ± 1.8 ×10^4/ml
[2]; 1.0 mg/kg i.t.
  IL-1α: 2.74 ± 0.64 pg/mL
  MIP-1α: 7.0 ± 1.40 pg/mL
  Neutrophils: 8.5 ± 1.3 ×10^4/ml
[2]; p<0.05 versus vehicle control at 1.0 and 0.6 mg/kg doses, 20-plex Luminex assay
  Inhibition of tobacco-smoke-induced IL-1α and MIP-1α production: exhibited inhibition
[3]; 0.6 mg/kg intratracheal
  TNFα: 293.6 ± 40.6 pg/mL
[3]; 1 mg/kg intratracheal
  TNFα: 361.7 ± 56.6 pg/mL
[3]; 3 mg/kg intratracheal, 1 hour prior to LPS
  Neutrophils: 13.5 ± 0.92 × 10^4/ml
[3]; 3 mg/kg intratracheal
  TNFα: 307.0 ± 60.0 pg/mL
[3]; 6 mg/kg intratracheal
  Neutrophils: 6.4 ± 0.41 × 10^4/ml
[3]; at doses tested, versus vehicle control
  Inhibition of LPS-induced airway inflammation measured as neutrophil influx and TNFα production: significantly inhibit
[4]; 0.6 mg/kg IT
  Eosinophils in BAL, Mean: 367580 mL⁻¹
  Neutrophils in BAL, Mean: 7270 mL⁻¹
[4]; 1.0 mg/kg IT
  Eosinophils in BAL, Mean: 163320 mL⁻¹
  Neutrophils in BAL, Mean: 5340 mL⁻¹
[4]; [7]
  Eosinophils in BAL, Mean: 57420 mL⁻¹
  Neutrophils in BAL, Mean: 10370 mL⁻¹
[5]
  Metabolism in the lung following IT administration: metabolized to Salmeterol and Desisobutyryl Ciclesonide in the lung
[6]; 6 μg/kg by inhalation
  Pulmonary Resistance (% of Baseline): 266.1 ± 19.6 % of Baseline
[6]; 20 μg/kg by inhalation
  Pulmonary Resistance (% of Baseline): 181.2 ± 11.5 % of Baseline
